In the NIST ThermoML archive (doi:10.1016/j.jct.2013.08.007):

Key:
[1] = Liquid; for mass density: Vibrating tube method; for viscosity: 101.33 kPa, Moving piston method
[2] = xn = mol fraction of the nth substance listed; conditions: Liquid; for viscosity: Moving piston method; for mass density: Vibrating tube method

CCCCO [butan-1-ol]
mass density [kg/m3], [1]
Conditions | 302.9 K | 323.1 K
100 kPa | 802 | 785.6
1010 kPa | – | 786.6
1020 kPa | 802.7 | –
2010 kPa | 803.4 | –
2020 kPa | – | 787.5
3010 kPa | 804.1 | 788.3
4000 kPa | 804.9 | 789.2
5010 kPa | 805.7 | –
5020 kPa | – | 790
6000 kPa | 806.4 | –
6020 kPa | – | 790.9
7000 kPa | – | 791.7
7020 kPa | 807.2 | –
8010 kPa | 807.9 | 792.5
9020 kPa | 808.7 | 793.3
10020 kPa | 809.4 | 794.2

[1]
Conditions | viscosity [mPa·s]
303.15 K | 2.197
323.3 K | 1.347

CCCCO [butan-1-ol] + O=C=O
[2]
Conditions | mass density, 303 K [kg/m3] | mass density, 323.1 K [kg/m3] | viscosity, 303 K [mPa·s] | viscosity, 323.1 K [mPa·s]
920 kPa, x2 = 0.047 | – | 789.3 | – | 1.143
1050 kPa, x2 = 0.07 | 808.1 | – | 1.744 | –
1920 kPa, x2 = 0.098 | – | 793.3 | – | 1
2030 kPa, x2 = 0.14 | 814.3 | – | 1.428 | –
2940 kPa, x2 = 0.151 | – | 798.4 | – | 0.828
3220 kPa, x2 = 0.217 | 822.8 | – | 1.16 | –
3990 kPa, x2 = 0.223 | – | 802 | – | 0.722
4100 kPa, x2 = 0.304 | 828.4 | – | 0.87 | –
4970 kPa, x2 = 0.384 | 835.3 | – | 0.661 | –
5100 kPa, x2 = 0.288 | – | 806.7 | – | 0.599
6250 kPa, x2 = 0.374 | – | 811 | – | 0.486

CC [ethane] + CCCCO
[2]
Conditions | mass density, 303 K [kg/m3] | mass density, 323.1 K [kg/m3] | viscosity, 303 K [mPa·s] | viscosity, 323.1 K [mPa·s]
1050 kPa, x1 = 0.097 | 776.8 | – | 1.553 | –
1140 kPa, x1 = 0.086 | – | 762.8 | – | 1.008
2050 kPa, x1 = 0.157 | – | 744.2 | – | 0.801
2080 kPa, x1 = 0.214 | 745.4 | – | 1.114 | –
3070 kPa, x1 = 0.243 | – | 718.4 | – | 0.618
3070 kPa, x1 = 0.341 | 704.9 | – | 0.668 | –
4070 kPa, x1 = 0.336 | – | 688.3 | – | 0.462
4950 kPa, x1 = 0.428 | – | 652.9 | – | 0.351
6020 kPa, x1 = 0.579 | – | 588.2 | – | 0.212

C [methane] + CCCCO
[2]
Conditions | mass density, 303 K [kg/m3] | mass density, 323.1 K [kg/m3] | viscosity, 303 K [mPa·s] | viscosity, 323.1 K [mPa·s]
1050 kPa, x1 = 0.02 | – | 782.2 | – | 1.236
1060 kPa, x1 = 0.021 | 797.6 | – | 1.994 | –
2070 kPa, x1 = 0.035 | – | 778.5 | – | 1.174
2100 kPa, x1 = 0.039 | 793.7 | – | 1.86 | –
2980 kPa, x1 = 0.048 | – | 775.5 | – | 1.131
3120 kPa, x1 = 0.056 | 789.4 | – | 1.731 | –
4030 kPa, x1 = 0.065 | – | 771.6 | – | 1.085
4080 kPa, x1 = 0.071 | 785.8 | – | 1.67 | –
5020 kPa, x1 = 0.079 | – | 767.9 | – | 1.046
5090 kPa, x1 = 0.087 | 781.8 | – | 1.612 | –
6070 kPa, x1 = 0.095 | – | 764.2 | – | 1.005
6070 kPa, x1 = 0.102 | 778.3 | – | 1.548 | –
